Laboratory results taken from US20040034036A1, “N-(3,5-dichloro-2-methoxyphenyl)-4-methoxy-3-piperazin-1-yl-benzenesulfonamide” (priority 2000, published 2004).

How the values were obtained:
[1] = MEST (Maximal electroshock seizure threshold) test; format: in vivo; conditions: procedures described by Upton et al.
[2] = CNS penetration; format: in vivo; conditions: relative to N-(2,3,5-Trichlorophenyl)-4methoxy-3-piperazin-1-ylbenzenesulfonamide (Example 136 of WO 99/02502)
[3] = oral bioavailability; conditions: in vivo

Row | Compound | effect in MEST test [1] | CNS penetration [2] | oral bioavailability [3]
1 | COc1ccc(S(=O)(=O)Nc2cc(Br)cc(F)c2Br)cc1N1CCNCC1 [Example 140 of WO 99/02502, N-(2,5-Dibromo-3-fluorophenyl)-4-methoxy-3-piperazin-1-ylbenzenesulfonamide, reference compound] | pro-convulsant effect |  | 
2 | COc1ccc(S(=O)(=O)Nc2cc(Cl)cc(Cl)c2OC)cc1N1CCNCC1 [compound of formula (I), N-(3,5-Dichloro-2-methoxy-phenyl)-4-methoxy-3-piperazin-1-yl-benzenesulfonamide] | strongly anti-convulsant effect | enhanced | high
